Experimental findings from patent US8354414B2, “Substituted bicyclic pyrimidines” (Cephalon, Inc, priority 2006, dated 2013) are described below.

For orientation: melting point means the temperature of the solid-liquid transition. As usually defined, the IC50 is the concentration at which inhibition is half-maximal. Usually inhibition stands for the percentage by which the read-out fell short of the control. A high value points to strong suppression.

One series concerns the target T1, His6-GSK-3β (Homo sapiens, UniProt P49841).
T1 construct: made in house; host or cells: Sf21 insect cells (baculovirus)
Description: Inhibition of His6-GSK-3β kinase activity (ELISA-based format, time-resolved fluorescence readout). It is filed as biochemical. To be noted: read-out: GSK3β IC50. The gist of the method:
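N-terminal His6-tagged full-length human GSK-3β (aa 2-419) expressed in Sf21 cells, 200 ng/ml, phosphorylating plate-coated GST-Rb with 20 μM ATP in pH 7.2 HEPES buffer, 30 min at 37° C. Phospho-Rb (Ser-780) detected by antibody plus Eu-labelled secondary, time-resolved fluorescence; IC50 from curves.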
Background: An ELISA detects its analyte on a solid surface through an enzyme-linked reagent.

In a further series the target is T2, CDK5/GST-p25 (Homo sapiens, UniProt Q00535).
T2 construct: The final construct, encoding for full-length human CDK5; made in house; host or cells: Sf21 insect cells (baculovirus co-infection)
T2 sequence (Q00535 whole entry): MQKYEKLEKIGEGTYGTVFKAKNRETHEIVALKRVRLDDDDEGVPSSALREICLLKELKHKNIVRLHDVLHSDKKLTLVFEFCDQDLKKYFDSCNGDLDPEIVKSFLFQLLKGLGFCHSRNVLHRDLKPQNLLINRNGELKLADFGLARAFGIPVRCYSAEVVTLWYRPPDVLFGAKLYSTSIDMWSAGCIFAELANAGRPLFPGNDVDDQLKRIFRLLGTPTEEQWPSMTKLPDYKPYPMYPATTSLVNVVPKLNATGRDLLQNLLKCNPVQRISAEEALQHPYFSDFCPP
T2 sequence (Q15078 108-307 partner limits assumed): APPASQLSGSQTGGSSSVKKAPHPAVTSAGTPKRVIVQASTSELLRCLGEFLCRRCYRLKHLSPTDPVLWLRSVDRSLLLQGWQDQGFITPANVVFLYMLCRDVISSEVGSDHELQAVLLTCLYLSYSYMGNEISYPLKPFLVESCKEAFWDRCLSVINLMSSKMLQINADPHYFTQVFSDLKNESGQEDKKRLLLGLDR
Description: Inhibition of CDK5/GST-p25 kinase activity (ELISA with time-resolved fluorescence readout). Format: biochemical. The essentials:
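Sf21-coexpressed full-length human CDK5 with GST-p25 (p35 aa 108-307), glutathione-purified, at 2 ng/ml was reacted for 20 min at 37 °C on plate-coated GST-Rb(773-928). Buffer was 20 mM HEPES pH 7.2, 10 µM ATP, 10 mM MgCl2 and 2.5% DMSO. Phospho-Rb Ser-780 was detected by Eu-labelled antibody TRF, and IC50 curves were fitted.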

Like-named read-outs stand apart in the source and are kept apart here. Where only a bound is given, the exact number is not on record here.

T1 sequence (P49841 2-419): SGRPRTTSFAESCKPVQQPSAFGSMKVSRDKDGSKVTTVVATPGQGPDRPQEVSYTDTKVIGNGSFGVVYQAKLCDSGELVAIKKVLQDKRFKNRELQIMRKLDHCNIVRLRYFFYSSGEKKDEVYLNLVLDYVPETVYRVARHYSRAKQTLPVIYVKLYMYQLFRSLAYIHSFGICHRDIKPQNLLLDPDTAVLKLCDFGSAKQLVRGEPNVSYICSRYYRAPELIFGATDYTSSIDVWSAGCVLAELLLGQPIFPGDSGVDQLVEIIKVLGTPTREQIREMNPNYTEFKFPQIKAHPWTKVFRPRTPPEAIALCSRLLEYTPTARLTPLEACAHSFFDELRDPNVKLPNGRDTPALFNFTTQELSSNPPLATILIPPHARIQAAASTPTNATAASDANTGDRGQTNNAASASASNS

Molecule `CCCn1cc2c(C3C(=O)Nc4ccc(Br)cc43)nc(Cl)nc2n1` (stereo not drawn) [Example 188, 5-Bromo-3-(6-chloro-2-propyl-2H-pyrazolo[3,4-d]pyrimidin-4-yl)-1,3-dihydro-indol-2-one] yielded a melting point of over 300 °C. The IC50 on His6-GSK-3β (numeric bounds) was over 3 µM. The half-inhibitory concentration (IC50) against CDK5/GST-p25 (class symbols) is over 10 µM.

The molecule `C[C@H](O)CNc1nc(C2C(=O)Nc3ccc(Br)cc32)c2cn(C3CCCC3)nc2n1` (stereo partly drawn) [Example 372] yielded a melting point of over 300 °C. For the same molecule, at His6-GSK-3β (class symbols), the IC50 is under 0.3 µM. At CDK5/GST-p25, this molecule registered an inhibition at 10 µM of 77%.

Consider `CC(C)Cn1cc2c(C3C(=O)Nc4ccc(Cl)cc43)nc(Cl)nc2n1` (stereo not drawn) [Example 261, 5-Chloro-3-(6-chloro-2-isobutyl-2H-pyrazolo[3,4-d]pyrimidin-4-yl)-1,3-dihydro-indol-2-one], for which the melting point is 284 °C (dec.). Also, the IC50 on His6-GSK-3β (numeric bounds) is over 3 µM. On CDK5/GST-p25 (class symbols), this molecule showed an IC50 of over 10 µM.

For `O=C1Nc2cc(F)ccc2C1c1ncnc2c1cnn2C1CCCCC1` (stereo not drawn) [Example 73, 3-(1-Cyclohexyl-1H-pyrazolo[3,4-d]pyrimidin-4-yl)-6-fluoro-1,3-dihydro-indol-2-one], the melting point lay within 277 to 280 °C. Besides, the half-inhibitory concentration (IC50) on His6-GSK-3β (class symbols) was over 10 µM. On CDK5/GST-p25 (class symbols), this molecule registered an IC50 of over 10 µM.

On to `O=C1Nc2ccc(Cl)cc2C1c1ncnc2nn(C3CCCCC3)cc12` (stereo not drawn) [Example 48, 5-Chloro-3-(2-cyclohexyl-2H-pyrazolo[3,4-d]pyrimidin-4-yl)-1,3-dihydro-indol-2-one], for which the melting point was 294 to 298 °C. The IC50 on His6-GSK-3β (class symbols) was under 0.3 µM. Besides, on CDK5/GST-p25 (class symbols), the IC50 is 0.3 to 3 µM.

For `C=CCNc1nc(C2C(=O)Nc3ccc(C#N)cc32)c2cn(C3CCCC3)nc2n1` (stereo not drawn) [Example 149, 3-(6-Allylamino-2-cyclopentyl-2H-pyrazolo[3,4-d]pyrimidin-4-yl)-2-oxo-2,3-dihydro-1H-indole-5-carbonitrile], the melting point was over 300 °C. Besides, at His6-GSK-3β (class symbols), the IC50 was under 0.3 µM. On CDK5/GST-p25 (class symbols), this molecule came in with a half-maximal inhibitory concentration (IC50) of under 0.3 µM.

As for `CCOCCn1cc2c(C3C(=O)Nc4ccc(Cl)cc43)nc(NCCN(C)C)nc2n1` (stereo not drawn) [Example 216, 5-Chloro-3-[6-(2-dimethylamino-ethylamino)-2-(2-ethoxy-ethyl)-2H-pyrazolo[3,4-d]pyrimidin-4-yl]-1,3-dihydro-indol-2-one], the melting point was 293 to 295 °C. Besides, at His6-GSK-3β (class symbols), the IC50 was 0.3 to 3 µM. Further, on CDK5/GST-p25 (class symbols), the IC50 was 0.3 to 3 µM.

For the molecule `CCCn1cc2c(C3C(=O)Nc4ccc(S(=O)(=O)N(C)C)cc43)nc(NCCN(C)C)nc2n1` (stereo not drawn) [Example 205, 3-[6-(2-Dimethylamino-ethylamino)-2-propyl-2H-pyrazolo [3,4-d]pyrimidin-4-yl]-2-oxo-2,3-dihydro-1H-indole-5-sulfonic acid dimethylamide], the melting point lay within 259 to 263 °C. On His6-GSK-3β (class symbols), the IC50 is over 10 µM. Besides, at CDK5/GST-p25 (numeric bounds), the IC50 is over 3 µM.

The molecule `O=C1Nc2ccc(Cl)cc2C1c1ncnc2c1cnn2C1CCCC1` (stereo not drawn) [Example 58, 5-Chloro-3-(1-cyclopentyl-1H-pyrazolo[3,4-d]pyrimidin-4-yl)-1,3-dihydro-indol-2-one] had a melting point of 304 to 306 °C. Further, the IC50 on His6-GSK-3β (numeric bounds) was over 3 µM. In addition, the IC50 on CDK5/GST-p25 (class symbols) was over 10 µM.

Take `N#Cc1ccc2c(c1)C(c1nc(N(CCO)CCO)nc3nn(C4CCCC4)cc13)C(=O)N2` (stereo not drawn) [Example 168, 3-{6-[bis(2-hydroxyethyl)amino]-2-cyclopentyl-2H-pyrazolo[3,4-d]pyrimidin-4-yl}-2-oxo-2,3-dihydro-1H-indole-5-carbonitrile]: the melting point was in the range of 243 to 243.5 °C. The IC50 on His6-GSK-3β (class symbols) was under 0.3 µM. This molecule gave an IC50 against CDK5/GST-p25 (class symbols) of under 0.3 µM.

With `Cn1nc([N+](=O)[O-])c2c(C3C(=O)Nc4ccc(C#N)cc43)ncnc21` (stereo not drawn) [Example 148, 3-(1-Methyl-3-nitro-1H-pyrazolo[3,4-d]pyrimidin-4-yl)-2-oxo-2,3-dihydro-1H-indole-5-carbonitrile], the melting point is > 300 °C (dec.). Besides, the IC50 at His6-GSK-3β (class symbols) is over 10 µM. At CDK5/GST-p25 (class symbols), the IC50 was over 10 µM.

`O=C1Nc2ccc(Br)cc2C1c1ncnc2c1cnn2C1CCCC1` (stereo not drawn) [Example 54, 5-Bromo-3-(1-cyclopentyl-1H-pyrazolo[3,4-d]pyrimidin-4-yl)-1,3-dihydro-indol-2-one] gave a melting point of 287 to 290 °C. Besides, the half-maximal inhibitory concentration (IC50) on His6-GSK-3β (class symbols) was over 10 µM. The IC50 against CDK5/GST-p25 (numeric bounds) was over 3 µM.

`CN(C)CCNc1nc(C2C(=O)Nc3ccc(Cl)cc32)c2cn(C3CCCC3)nc2n1` (stereo not drawn) [Example 376, 5-Chloro-3-[2-cyclopentyl-6-(2-dimethylamino-ethylamino)-2H-pyrazolo [3,4-d]pyrimidin-4-yl]-1,3-dihydro-indol-2-one] displayed a melting point of 145 to 148 °C. The IC50 at His6-GSK-3β (class symbols) is 0.3 to 3 µM. Moreover, at CDK5/GST-p25 (class symbols), the IC50 is over 10 µM.

`CN(C)CCCNc1nc(C2C(=O)Nc3ccc(Cl)cc32)c2cn(C3CCCC3)nc2n1` (stereo not drawn) [Example 377, 5-Chloro-3-[2-cyclopentyl-6-(3-dimethylamino-propylamino)-2H-pyrazolo [3,4-d]pyrimidin-4-yl]-1,3-dihydro-indol-2-one]: the melting point is 176 to 179 °C. Besides, the IC50 on His6-GSK-3β (class symbols) fell in the range of 0.3 to 3 µM. Besides, the IC50 at CDK5/GST-p25 (class symbols) was over 10 µM.

As to `Cl.NCCNc1nc(C2C(=O)Nc3ccc(C(F)(F)F)cc32)c2cn(C3CCCC3)nc2n1` (stereo not drawn) [Example 252, 3-[6-(2-Amino-ethylamino)-2-cyclopentyl-2H-pyrazolo[3,4-d]pyrimidin-4-yl]-5-trifluoromethyl-1,3-dihydroindol-2-one hydrochloride salt], the melting point lay in the range of 290 to 293 °C. Further, the IC50 on His6-GSK-3β (class symbols) is under 0.3 µM. The molecule also returned an IC50 against CDK5/GST-p25 (class symbols) of 0.3 to 3 µM.

In turn, `CC(C)CNc1nc(C2C(=O)Nc3ccccc32)c2cn(C3CCCC3)nc2n1` (stereo not drawn) [Example 244, 3-(2-Cyclopentyl-6-isobutylamino-2H-pyrazolo[3,4-d]pyrimidin-4-yl)-1,3-dihydro-indol-2-one] registered a melting point of 280 to 282 °C. In addition, the 50% inhibitory concentration (IC50) on His6-GSK-3β (numeric bounds) is over 1 µM. Further, the IC50 on CDK5/GST-p25 (class symbols) is over 10 µM.

Consider `N#Cc1ccc2c(c1)C(c1ncnc3[nH]ncc13)C(=O)N2` (stereo not drawn) [Example 109, 2-Oxo-3-(1H-pyrazolo[3,4-d]pyrimidin-4-yl)-2,3-dihydro-1H-indole-5-carbonitrile], for which the melting point was > 300 °C (dec.). For the same molecule, the IC50 at His6-GSK-3β (class symbols) is under 0.3 µM. For the same molecule, the IC50 against CDK5/GST-p25 (class symbols) was under 0.3 µM.

Consider `O=C1Nc2ccccc2C1c1nc(NCCc2cccnc2)nc2nn(C3CCCC3)cc12` (stereo not drawn) [Example 155, 3-[2-cyclopentyl-6-(2-pyridin-3-yl-ethylamino)-2H-pyrazolo [3,4-d]pyrimidin-4-yl]-1,3-dihydro-indol-2-one], for which the melting point is 258 to 260 °C. At His6-GSK-3β (class symbols), the IC50 is 0.3 to 3 µM. Further, the IC50 on CDK5/GST-p25 (numeric bounds) was over 1 µM.

Molecule `N#Cc1ccc2c(c1)NC(=O)C2c1ncnc2c1cnn2C1CCCCC1` (stereo not drawn) [Example 69, 3-(1-Cyclohexyl-1H-pyrazolo[3,4-d]pyrimidin-4-yl)-2-oxo-2,3-dihydro-1H-indole-6-carbonitrile] registered a melting point of over 300 °C. In addition, the IC50 at His6-GSK-3β (class symbols) was over 10 µM. At CDK5/GST-p25 (numeric bounds), this molecule displayed an IC50 of over 3 µM.

For `CN(C)CCCNc1nc(C2C(=O)Nc3ccc(Br)cc32)c2cn(C)nc2n1` (stereo not drawn) [Example 307, 5-Bromo-3-[6-(3-dimethylamino-propylamino)-2-methyl-2H-pyrazolo[3,4-d]pyrimidin-4-yl]-1,3-dihydro-indol-2-one], the melting point is 310 to 312 °C (dec.). For the same molecule, at His6-GSK-3β (class symbols), the IC50 was 0.3 to 3 µM. The same molecule showed a 50% inhibitory concentration (IC50) at CDK5/GST-p25 (class symbols) of 0.3 to 3 µM.

Molecule `O=C1Nc2ccc(Br)cc2C1c1ncnc2nn(C3CCCCC3)cc12` (stereo not drawn) [Example 46, 5-Bromo-3-(2-cyclohexyl-2H-pyrazolo[3,4-d]pyrimidin-4-yl)-1,3-dihydro-indol-2-one] showed a melting point of 285 to 290 °C. Further, the IC50 on His6-GSK-3β (class symbols) is under 0.3 µM. At CDK5/GST-p25 (class symbols), this molecule gave an IC50 of under 0.3 µM.

`N#Cc1cccc2c1NC(=O)C2c1ncnc2nn(C3CCCC3)cc12` (stereo not drawn) [Example 39, 3-(2-Cyclopentyl-2H-pyrazolo[3,4-d]pyrimidin-4-yl)-2-oxo-2,3-dihydro-1H-indole-7-carbonitrile] showed a melting point of over 380 °C. Moreover, the IC50 on His6-GSK-3β (class symbols) fell in the range of 0.3 to 3 µM. Moreover, the half-inhibitory concentration (IC50) against CDK5/GST-p25 (class symbols) was under 0.3 µM.

The molecule `O=C1Nc2ccc(C(F)(F)F)cc2C1c1ncnc2nn(C3CCCC3)cc12` (stereo not drawn) [Example 34, 3-(2-Cyclopentyl-2H-pyrazolo [3,4-d]pyrimidin-4-yl)-5-trifluoromethyl-1,3-dihydro-indol-2-one] gave a melting point of 292 to 293 °C. Besides, at His6-GSK-3β (class symbols), the IC50 was under 0.3 µM. The same molecule showed an IC50 at CDK5/GST-p25 (class symbols) of under 0.3 µM.

The molecule `COCCn1cc2c(C3C(=O)Nc4ccc(Br)cc43)nc(NCCN3CCOCC3)nc2n1` (stereo not drawn) [Example 234, 5-Bromo-3-[2-(2-methoxy-ethyl)-6-(2-morpholin-4-yl-ethylamino)-2H-pyrazolo[3,4-d]pyrimidin-4-yl]-1,3-dihydro-indol-2-one] registered a melting point of over 300 °C. In addition, the IC50 on His6-GSK-3β (class symbols) is under 0.3 µM. The molecule further yielded an IC50 against CDK5/GST-p25 (class symbols) of under 0.3 µM.

The molecule `CCCn1cc2c(C3C(=O)Nc4ccc(Br)cc43)nc(NCCN)nc2n1` (stereo not drawn) [Example 200, 3-[6-(2-Amino-ethylamino)-2-propyl-2H-pyrazolo [3,4-d]pyrimidin-4-yl]-5-bromo-1,3-dihydro-indol-2-one] came in with a melting point of 272 to 276 °C. In addition, the 50% inhibitory concentration (IC50) at His6-GSK-3β (class symbols) is under 0.3 µM. At CDK5/GST-p25 (class symbols), the IC50 was under 0.3 µM.
